Measured values taken from ChEMBL document CHEMBL1961794, “Regulation of circadian behaviour and metabolism by synthetic REV-ERB agonists” (Nature, 2012).

Target: T1, Nuclear receptor subfamily 1 group D member 1 (Homo sapiens, UniProt P20393)
T1 sequence (P20393 whole entry): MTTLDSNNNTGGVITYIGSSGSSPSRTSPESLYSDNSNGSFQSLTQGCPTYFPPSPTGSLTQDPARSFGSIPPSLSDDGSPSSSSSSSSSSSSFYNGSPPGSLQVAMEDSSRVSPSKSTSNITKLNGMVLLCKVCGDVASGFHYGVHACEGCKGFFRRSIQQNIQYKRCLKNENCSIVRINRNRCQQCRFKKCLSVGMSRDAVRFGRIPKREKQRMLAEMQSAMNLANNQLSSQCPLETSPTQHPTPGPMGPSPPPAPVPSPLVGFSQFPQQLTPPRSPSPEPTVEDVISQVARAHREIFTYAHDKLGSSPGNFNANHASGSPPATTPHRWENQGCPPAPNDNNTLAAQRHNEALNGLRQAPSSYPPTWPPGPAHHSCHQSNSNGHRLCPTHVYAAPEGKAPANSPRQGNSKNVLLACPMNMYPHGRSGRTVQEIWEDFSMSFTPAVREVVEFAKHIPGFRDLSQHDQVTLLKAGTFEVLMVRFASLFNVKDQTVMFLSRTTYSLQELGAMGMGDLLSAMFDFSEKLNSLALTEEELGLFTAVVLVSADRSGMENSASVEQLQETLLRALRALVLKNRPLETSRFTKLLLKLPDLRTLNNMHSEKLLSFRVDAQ
Assay: Increased REV-ERB-alpha LBD dependent repressor activity in HEK293 cell reporter assay
Format: cell-based
Details: hek293; call rule not given here

IC50: Not Active
Compound: CC(C)(C)OC(=O)CN(Cc1ccc(Cl)cc1)Cc1ccc([N+](=O)[O-])s1 [GSK-4112]
